Test results taken from patent publication US8481732B2 (Incyte Corporation, priority 2009, dated 2013).

target: T1, histamine H4 receptor (Homo sapiens, UniProt Q9H3N8); assay: H4 Membrane Binding Assay (3H-Histamine displacement); settings: membranes of recombinant HEK293SFM cells, 10 nM 3H-Histamine, 1.5 hr at room temperature
T1 construct: expressed in transfected cells; host or cells: HEK293SFM cells (membrane preparation)
Procedure: Recombinant HEK293SFM cells expressing human H1, H2, H3, H4 or mouse H4 were harvested (Packard Filtermate Harvester) in ice-cold Tris-HCl, (50 mM, pH 7.5, Sigma) with protease inhibitors (Roche) and homogenized with a Polytron homogenizer. The homogenate was centrifuged for 5 minutes at 1000 g to remove nuclei and unbroken cells. The supernatant was centrifuged at 50000 g for 30 minutes, and the resulting pellet was re-suspended in ice-cold Tris-HCl (50 mM, pH 7.5). […] Nonspecific binding was determined by inclusion of 1000× unlabeled ligands. The bound radioactivity was separated by filtration through polyethyleneimine-treated GF/B filters (Perkin Elmer). The filters were washed eight times with ice-cold Tris-HCl (50 mM, pH 7.5), and radioactivity retained on the filters was measured by liquid scintillation counting. The binding data were evaluated with Prism.

| IC50 | Structure (SMILES) |
| --- | --- |
| 23 nM | COC(=O)c1ccc(Oc2cccc(CC(NC(=O)c3ccc4c(N5CCN(C)CC5)nc(N)nc4c3)C(=O)N(C)C)c2)cc1 (centres unmarked) [Example 169, Methyl 4-{3-[2-({[2-amino-4-(4-methylpiperazin-1-yl)quinazolin-7-yl]carbonyl}amino)-3-(dimethylamino)-3-oxopropyl]phenoxy}benzoate] |
| 63 nM | COC(=O)c1ccc(COc2cccc3c2CCN(C(=O)c2ccc4c(N5CCN(C)CC5)nc(N)nc4c2)C3)cc1 [Example 211, Methyl 4-((2-(2-amino-4-(4-methylpiperazin-1-yl)quinazoline-7-carbonyl)-1,2,3,4-tetrahydroisoquinolin-5-yloxy)methyl)benzoate] |
| 569 nM | CC(NC(=O)N1CCc2ccc(-c3cc(N4CCN(C)CC4)nc(N)n3)cc2C1)c1cccnc1 (centres unmarked) [Example 126, 7-[2-Amino-6-(4-methylpiperazin-1-yl)pyrimidin-4-yl]-N-(1-pyridin-3-ylethyl)-3,4-dihydroisoquinoline-2(1H)-carboxamide] |
| 199 nM | CNC(=O)c1ccc(N2CCc3ccc(-c4cc(N5CCN(C)CC5)nc(N)n4)cc3C2)cn1 [Example 17, 5-{7-[2-Amino-6-(4-methylpiperazin-1-yl)pyrimidin-4-yl]-3,4-dihydroisoquinolin-2(1H)-yl}-N-methylpyridine-2-carboxamide] |
| 49 nM | CN1CCN(c2cc(-c3ccc4c(c3)CN(C(=O)N[C@@H]3CCCC[C@@H]3OCC3CC3)CC4)nc(N)n2)CC1 (relative stereo) [Example 86] |
| 172 nM | CN1CCN(c2cc(-c3ccc4c(c3)CN(C(=O)c3ccc(Cl)cc3)CC4)nc(N)n2)CC1 [Example 2, 4-[2-(4-Chlorobenzoyl)-1,2,3,4-tetrahydroisoquinolin-7-yl]-6-(4-methylpiperazin-1-yl)pyrimidin-2-amine] |
| 9.6 nM | CN1CCN(c2cc(-c3ccc4c(c3)CN(C(=O)CC3CCC3)CC4)nc(N)n2)CC1 [Example 109, 4-[2-(Cyclobutylacetyl)-1,2,3,4-tetrahydroisoquinolin-7-yl]-6-(4-methylpiperazin-1-yl)pyrimidin-2-amine] |
| 57 nM | COc1ccc(-c2ccc(CC(NC(=O)c3ccc4c(N5CCN(C)CC5)nc(N)nc4c3)C(=O)N(C)C)cn2)cc1 (centres unmarked) [Example 164, 2-Amino-N-(-2-(dimethylamino)-1-{[6-(4-methoxyphenyl)pyridin-3-yl]methyl}-2-oxoethyl)-4-(4-methylpiperazin-1-yl)quinazoline-7-carboxamide] |
| 123 nM | CCS(=O)(=O)N1CCC(CC(=O)N2CCc3ccc(-c4cc(N5CCN(C)CC5)nc(N)n4)cc3C2)CC1 [Example 74, 4-(2-{[1-(Ethylsulfonyl)piperidin-4-yl]acetyl}-1,2,3,4-tetrahydroisoquinolin-7-yl)-6-(4-methylpiperazin-1-yl)pyrimidin-2-amine] |
| 16 nM | CN1CCN(c2cc(-c3ccc4c(c3)CN(C(=O)Nc3cccc(Cl)c3F)CC4)nc(N)n2)CC1 [Example 40, 7-[2-Amino-6-(4-methylpiperazin-1-yl)pyrimidin-4-yl]-N-(3-chloro-2-fluorophenyl)-3,4-dihydroisoquinoline-2(1H)-carboxamide] |
| 33 nM | COC(=O)N1CCC(OC(=O)N2CCc3ccc(-c4cc(N5CCN(C)CC5)nc(N)n4)cc3C2)CC1 [Example 115, 1-(Methoxycarbonyl)piperidin-4-yl 7-[2-amino-6-(4-methylpiperazin-1-yl)pyrimidin-4-yl]-3,4-dihydroisoquinoline-2(1H)-carboxylate] |
| 218 nM | CN1CCN(c2cc(-c3ccc4c(c3)CN(C(=O)N[C@@H]3c5ccccc5C[C@@H]3O)CC4)nc(N)n2)CC1 [Example 87, 7-[2-Amino-6-(4-methylpiperazin-1-yl)pyrimidin-4-yl]-N-[(1R,2S)-2-hydroxy-2,3-dihydro-1H-inden-1-yl]-3,4-dihydroisoquinoline-2(1H)-carboxamide] |
| 61 nM | CC(C)[C@@H](C)NC(=O)N1CCc2ccc(-c3cc(N4CCN(C)CC4)nc(N)n3)cc2C1 [Example 98, 7-[2-Amino-6-(4-methylpiperazin-1-yl)pyrimidin-4-yl]-N-[(1R)-1,2-dimethylpropyl]-3,4-dihydroisoquinoline-2(1H)-carboxamide] |
| 23.1 nM | CN1CCN(c2cc(-c3ccc4c(c3)CN(c3ccc(C#N)cc3)CC4)nc(N)n2)CC1 [Example 14, 4-{7-[2-Amino-6-(4-methylpiperazin-1-yl)pyrimidin-4-yl]-3,4-dihydroisoquinolin-2(1H)-yl}benzonitrile] |
| 565 nM | CC(NC(=O)c1ccc2c(N3CCN(C)CC3)nc(N)nc2c1)c1ccccc1 (centres unmarked) [Example 24, 2-Amino-4-(4-methylpiperazin-1-yl)-N-(1-phenylethyl)quinazoline-7-carboxamide] |
| 10 nM | COc1ccccc1-c1ccc(C[C@H](NC(=O)c2ccc3c(N4CCN(C)CC4)nc(N)nc3c2)C(=O)N(C)C)cc1 [Example 152, 2-Amino-N-{(1S)-2-(dimethylamino)-1-[(2′-methoxybiphenyl-4-yl)methyl]-2-oxoethyl}-4-(4-methylpiperazin-1-yl)quinazoline-7-carboxamide] |
| 31 nM | CN1CCN(c2cc(-c3ccc4c(c3)CN(C(=O)Nc3ccccc3F)CC4)nc(N)n2)CC1 [Example 99, 7-[2-Amino-6-(4-methylpiperazin-1-yl)pyrimidin-4-yl]-N-(2-fluorophenyl)-3,4-dihydroisoquinoline-2(1H)-carboxamide] |
| 63 nM | CC(NC(=O)c1ccc2c(N3CCN(C)CC3)nc(N)nc2c1)c1cccc(Oc2ncccc2C#N)c1 (centres unmarked) [Example 199, 2-Amino-N-(1-{3-[(3-cyanopyridin-2-yl)oxy]phenyl}ethyl)-4-(4-methylpiperazin-1-yl)quinazoline-7-carboxamide] |
| 25 nM | CN1CCN(c2nc(N)nc3cc(C(=O)N[C@@H](Cc4ccc(-c5ccccc5)cc4)C(=O)N(C)C)ccc23)CC1 [Example 139, 2-Amino-N-[(1S)-1-(biphenyl-4-ylmethyl)-2-(dimethylamino)-2-oxoethyl]-4-(4-methylpiperazin-1-yl)quinazoline-7-carboxamide] |
| 26 nM | CN1CCN(c2nc(N)nc3cc(C(=O)NC(Cc4ccc5c(c4)OC(F)(F)O5)C(=O)N(C)C)ccc23)CC1 (single isomer, unassigned) [Example 145B, 2-Amino-N-(3-(2,2-difluorobenzo[d][1,3]dioxol-5-yl)-1-(dimethylamino)-1-oxopropan-2-yl)-4-(4-methylpiperazin-1-yl)quinazoline-7-carboxamide] |
| 9.2 nM | CN1CCN(c2nc(N)nc3cc(C(=O)NC4CCCc5ccc(OCc6cccc(C#N)c6)cc54)ccc23)CC1 (centres unmarked) [Example 202, 2-Amino-N-(7-(3-cyanobenzyloxy)-1,2,3,4-tetrahydronaphthalen-1-yl)-4-(4-methylpiperazin-1-yl)quinazoline-7-carboxamide] |
| 24 nM | COC(=O)c1ccc(COc2ccc3c(c2)C(NC(=O)c2ccc4c(N5CCN(C)CC5)nc(N)nc4c2)CCC3)cc1 (centres unmarked) [Example 206, Methyl 4-((8-(2-amino-4-(4-methylpiperazin-1-yl)quinazoline-7-carboxamido)-5,6,7,8-tetrahydronaphthalen-2-yloxy)methyl)benzoate] |
| 110 nM | CN1CCN(c2cc(-c3ccc4c(c3)CN(C(=O)OC3CCN(C(=O)C5CCCC5)CC3)CC4)nc(N)n2)CC1 [Example 67, 1-(Cyclopentylcarbonyl)piperidin-4-yl 7-[2-amino-6-(4-methylpiperazin-1-yl)pyrimidin-4-yl]-3,4-dihydroisoquinoline-2(1H)-carboxylate] |
| 65 nM | CN1CCN(c2nc(N)nc3cc(C(=O)NCc4cccc(Oc5cc(C#N)ccn5)c4)ccc23)CC1 [Example 183, 2-Amino-N-{3-[(4-cyanopyridin-2-yl)oxy]benzyl}-4-(4-methylpiperazin-1-yl)quinazoline-7-carboxamide] |
| 67 nM | CN1CCN(c2cc(-c3ccc4c(c3)CN(C(=O)NC3CCc5ccccc53)CC4)nc(N)n2)CC1 (centres unmarked) [Example 82, 7-[2-Amino-6-(4-methylpiperazin-1-yl)pyrimidin-4-yl]-N-(2,3-dihydro-1H-inden-1-yl)-3,4-dihydroisoquinoline-2(1H)-carboxamide] |
| 25 nM | CN1CCN(c2cc(-c3ccc4c(c3)CN(C(=O)Cc3ccc(F)cc3)CC4)nc(N)n2)CC1 [Example 65, 4-{2-[(4-Fluorophenyl)acetyl]-1,2,3,4-tetrahydroisoquinolin-7-yl}-6-(4-methylpiperazin-1-yl)pyrimidin-2-amine] |
| 52 nM | CN1CCN(c2cc(-c3ccc4c(c3)CN(C(=O)Nc3ccc(Oc5ccccc5)cc3)CC4)nc(N)n2)CC1 [Example 96, 7-[2-Amino-6-(4-methylpiperazin-1-yl)pyrimidin-4-yl]-N-(4-phenoxyphenyl)-3,4-dihydroisoquinoline-2(1H)-carboxamide] |
| 183 nM | CN1CCN(c2cc(-c3ccc4c(c3)CN(C(=O)NC3(C(F)(F)F)CC3)CC4)nc(N)n2)CC1 [Example 117, 7-[2-amino-6-(4-methylpiperazin-1-yl)pyrimidin-4-yl]-N-[1-(trifluoromethyl)cyclopropyl]-3,4-dihydroisoquinoline-2(1H)-carboxamide] |

| Structure (SMILES) | IC50 |
| --- | --- |
| CN1CCN(c2nc(N)nc3cc(C(=O)N[C@@H](Cc4ccc(OC(=O)Nc5cccc(Cl)c5)cc4)C(=O)N(C)C)ccc23)CC1 [Example 165, 4-[(2S)-2-({[2-Amino-4-(4-methylpiperazin-1-yl)quinazolin-7-yl]carbonyl}amino)-3-(dimethylamino)-3-oxopropyl]phenyl (3-chlorophenyl)carbamate] | 16 nM |
